Experimental data reported in ChEMBL document CHEMBL3351964, “2-Aminopyrimidin-4(1H)-one as the novel bioisostere of urea: discovery of novel and potent CXCR2 antagonists” (Bioorg Med Chem Lett, 2014).
Values after ≈ are worked out from the molar mass of the structure shown.

Legend:
Format in all cases: ADME
[1] = Solubility of the compound in fasted simulated intestinal fluid after 4 hrs
[2] = Stability of the compound in simulated gastric fluid after 24 hrs at 37 degC; settings: simulated gi fluid
[3] = Passive permeability of the compound by PAMPA assay; settings: read-out: permeability

CC(C)S(=O)(=O)c1c(Cl)ccc(Nc2nc(=O)cc(C(C)(C)C)[nH]2)c1O
solubility at 4 h [1]: 33 µg/mL (≈ 82.5 µM)
Stability [2]: Stable
Papp [3]: 37 ×10⁻⁶ cm/s
